Legend:
Type in all cases: functional, cell-based
HL-60 = assay: Cytotoxicity against human HL60 cells after 72 hrs by MTT assay; conditions: HL-60, 72 h
ZR-75-30 = assay: Cytotoxicity against human ZR75-30 cells after 72 hrs by MTT assay; conditions: ZR-75-30, 72 h
HCT-116 = assay: Cytotoxicity against human HCT116 cells after 72 hrs by MTT assay; conditions: HCT-116, 72 h
A549 = assay: Cytotoxicity against human A549 cells after 72 hrs by MTT assay; conditions: A549, 72 h

Measured: IC50

C[C@@H]1C[C@@H](O)[C@H]2C(C)(C)CCC[C@]2(C)[C@@]1(O)CCC1=CC(=O)OC1
> 5 µg/mL: HL-60 | ZR-75-30 | HCT-116 | A549

CC1=C(CC[C@@H](C)C(=O)CCC2=CC(=O)OC2)C(C)(C)CCC1
> 5 µg/mL: HL-60 | ZR-75-30 | HCT-116 | A549

CO[C@@H]1C[C@@]2(CC[C@@]3(O2)[C@H](C)CC[C@H]2C(C)(C)[C@@H](OC(C)=O)CC[C@@]23C)[C@H](OC)O1 (relative stereo)
> 5 µg/mL: HL-60 | ZR-75-30 | HCT-116 | A549

CC(=O)O[C@@H]1CC(C)=C(CCC2=CC(=O)OC2)[C@@]2(C)CCCC(C)(C)[C@H]12 (relative stereo)
> 5 µg/mL: HL-60 | ZR-75-30 | HCT-116 | A549

C[C@@H]1CC=C2C(C)(C)CCC[C@]2(C)[C@@]1(O)CCC1=CC(=O)OC1 (relative stereo)
> 5 µg/mL: HL-60 | ZR-75-30 | HCT-116 | A549

C[C@@H]1C[C@@H](O)[C@H]2C(C)(C)CCC[C@]2(C)[C@@]12CC[C@]1(COC(=O)C1)O2 (relative stereo)
> 5 µg/mL: HL-60 | ZR-75-30 | HCT-116 | A549

C[C@@H]1CC=C2C(C)(C)CCC[C@]2(C)[C@@]12CC[C@]1(COC(=O)C1)O2 (relative stereo)
> 5 µg/mL: HL-60 | ZR-75-30 | HCT-116 | A549

CC(=O)O[C@@H]1C[C@@H](C)[C@]2(CC[C@]3(COC(=O)C3)O2)[C@@]2(C)CCCC(C)(C)[C@H]12 [PREVITEXILACTONE]
> 5 µg/mL: HL-60 | ZR-75-30 | HCT-116 | A549

CC(=O)O[C@@H]1C[C@@H](C)[C@](O)(CCc2ccoc2)[C@@]2(C)CCCC(C)(C)[C@H]12 [ROTUNDIFURAN]
> 5 µg/mL: HL-60 | ZR-75-30 | HCT-116 | A549

CC(=O)O[C@@H]1C[C@@H](C)[C@](O)(CCC2=CC(=O)OC2O)[C@@]2(C)CCCC(C)(C)[C@H]12 (stereo partly drawn) [VITEAGNUSIN I]
> 5 µg/mL: HL-60 | ZR-75-30 | HCT-116 | A549

CC(=O)O[C@@H]1C[C@@H](C)[C@](O)(CCC2=CC(=O)OC2)[C@@]2(C)CCCC(C)(C)[C@H]12 [VITEXILACTONE]
> 5 µg/mL: HL-60 | ZR-75-30 | HCT-116 | A549

CO[C@H]1C[C@@]2(CC[C@@]3(O2)[C@H](C)CC[C@H]2C(C)(C)[C@@H](OC(C)=O)CC[C@@]23C)[C@H](OC)O1 [VITEXTRIFOLIN B]
> 5 µg/mL: HL-60 | ZR-75-30 | HCT-116 | A549
